According to PubChem BioAssay (NCI):
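Test compounds were applied to cells in 96-well plates for 48 hours at 5 doses. TGI: concentration producing complete growth inhibition.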

How the values were obtained:
Test in all cases: growth of human tumour cells (NCI), 48 h
MCF7 breast = system: MCF7 breast
786-0 renal = system: 786-0 renal
RXF 393 renal = system: RXF 393 renal
UACC-257 melanoma = system: UACC-257 melanoma
CAKI-1 renal = system: CAKI-1 renal
PC-3 prostate = system: PC-3 prostate
SNB-19 CNS = system: SNB-19 CNS
HCT-116 colon = system: HCT-116 colon
TK-10 renal = system: TK-10 renal
HOP-92 NSCLC = system: HOP-92 NSCLC
IGROV1 ovarian = system: IGROV1 ovarian
LOX IMVI melanoma = system: LOX IMVI melanoma
SF-539 CNS = system: SF-539 CNS
SR leukemia = system: SR leukemia
EKVX NSCLC = system: EKVX NSCLC
NCI-H522 lung = system: NCI-H522 lung
CCRF-CEM leukemia = system: CCRF-CEM leukemia
M14 melanoma = system: M14 melanoma
SNB-75 CNS = system: SNB-75 CNS
T-47D breast = system: T-47D breast

## O=[N+]([O-])/C(C(Cl)=C(Cl)Cl)=C1\Nc2ccccc2O1
MCF7 breast
  TGI: > 100 µM
786-0 renal
  TGI: 32.1 µM
RXF 393 renal
  TGI: > 100 µM
UACC-257 melanoma
  TGI: > 100 µM
CAKI-1 renal
  TGI: > 100 µM
PC-3 prostate
  TGI: > 100 µM
SNB-19 CNS
  TGI: > 100 µM
HCT-116 colon
  TGI: > 100 µM
TK-10 renal
  TGI: > 100 µM
HOP-92 NSCLC
  TGI: 62.4 µM
IGROV1 ovarian
  TGI: > 100 µM
LOX IMVI melanoma
  TGI: > 100 µM
SF-539 CNS
  TGI: 38.6 µM
SR leukemia
  TGI: 63.7 µM
EKVX NSCLC
  TGI: > 100 µM
NCI-H522 lung
  TGI: 63.8 µM
CCRF-CEM leukemia
  TGI: 38.7 µM
M14 melanoma
  TGI: > 100 µM
SNB-75 CNS
  TGI: 64.8 µM
T-47D breast
  TGI: > 100 µM
